We go through 3 compounds from patent US8435547B2, “Cream for stimulating mitochondrial activity in the skin” (priority 2006, dated 2013).

For data set [1], the system named is skin. The experiment in a line: Skin testing for the cause of the allergic reactions. The settings on record: skin testing in the same volunteer. The data set is classed as in vivo, human. From the text:
When the use of the cream containing these ingredients was discontinued, the allergic lesions cleared completely without scarring.

The conditions of data set [2]: cited from earlier work.
The conditions of data set [3]: oral, human; cited from earlier work.

Take `CCOC(=O)CC(O)C(=O)OCC` (stereo not shown) [diethyl malate]: the “ingredient responsible for the allergic reactions” value in data set [1] was “allergic reactions were due to the diethyl malate”. As to tristeryl glycerol, in data set [2] (alcohol), the solubility in alcohol entry is listed as “very slightly soluble”. The solubility in water result in data set [2] (water) is “insoluble”. As to vitamin E, the “dose above which toxicity is evident” value in data set [3] is “above 1 gm/day”.
